According to patent publication US7192742B2, “FO-6979 substances and process for producing the same” (Gakkou Houjin Kitasato Gakeun, priority 2001, dated 2007):
Read-outs that look alike come from different tables or passages of the source.

Key:
[1] = molecular target: T1, acyl-CoA: cholesterol acyltransferase derived from mouse; experiment: Acyl-CoA: cholesterol acyltransferase activity assay, mouse liver microsome membrane fraction, [1-14C] oleoyl-CoA; format: biochemical; details: 37° C. for 10 minutes, read-out: IC50, concentration which inhibits 50% of Acyl-CoA: cholesterol acyltransferase activity
T1 construct: A membrane fraction derived from mouse liver microsome was used as an enzyme origin
Description: Inhibitory activities of FO 6979-M0 substance, -M1 substance, -M2 substance, -M3 substance and -M4 substance of the present invention (hereinafter totally designates as FO-6979 substances) on acyl-CoA: cholesterol acyltransferase derived from mouse are explained hereinbelow.
Acyl-CoA: cholesterol acyltransferase activity was assayed by the modified method of Uelmen, et al. (J. Biol. Chem. 270: 26192–26201, 1995). A membrane fraction derived from mouse liver microsome was used as an enzyme origin. A mouse liver was homogenized with buffer A [50 mM Tris-HCL (pH 7.8), 1 mM EDTA and 1 mM phenylmethanesulfonyl fluoride] using Potter homogenizer (Tokyo-RIKO Inc.).
The homogenate was centrifuged at 12,000×g, and the supernatant solution was ultracentrifuged at 100,000×g to obtain the microsome fraction which was prepared for a solution with protein concentration 5 mg/ml by adding the buffer A. Assay of acyl-CoA: cholesterol acyltransferase activity was performed by adding enzyme 200 μg protein, […] bovine serumu alubumin, [1-^14C] oleoyl-CoA (final concentration 170 μM, 0.09 μCi) and each FO-6979 substance into the buffer A to prepare total 100 μl solution and incubated at 37° C. for 10 minutes.
Subsequently, the reaction was terminated by adding 0.5 ml ethanol and added 1.5 ml hexane therein, then stirred well. Hexane layer 1 ml was dried up and was spotted on TLC plate (silica gel plate, thickness 0.5 mm, Merck Co., U.S.A.) which was developed with a solvent mixture, petroleum ether/diethyl ether/acetic acid (90:10:1, v/v). The generated [^14C] cholesteryl olate was quantitative measured using radio scanner (Ambis Co.). Results indicating concentration which inhibits 50% of Acyl-CoA: cholesterol acyltransferase activity of FO-6979 substances (-M0 substance˜-M4 substance) (IC50) are shown in the following table.

[2] = system: cholesteryl ester formation in mouse peritoneal macrophage; experiment: Cholesteryl ester formation in mouse peritoneal macrophage ([14C] oleic acid incorporation); format: cell-based; details: for IC50: 14 hours incubation, read-out: IC50, generation of [14C] cholesteryl olate
Description: Inhibitory action of FO-6979 substances of the present invention on cholesteryl ester formation in mouse peritoneal macrophage is explained.
Cholesteryl ester formation and lipid droplets formation in mouse peritoneal macrophage were performed according to a method of Namatame et al.(J. Biochem. 125: 319–327, 1999). Macrophage isolated from mouse peritoneal fluid was suspended at 2.0×10^6 cells/ml in Dulbecco's modified Eagle's medium containing 6.8% lipoprotein deficient serum (6.8% LPDS-DMEM) and aliquots (0.25 ml) were dispensed into a 48-well microplate (Corning Co.).
The plate was incubated in a humidified 5% CO2 atmosphere incubator at 37° C. for 2 hours, after which each plate was washed with Hank's solution to remove the unattached cells. The plate was incubated in 6.8% LPDS-DMEM for 1 hour, and each one of FO-6979 substances (2.5 μl 1 methanol solution), liposome [consisting of phosphatidylcholine/phosphatidylserine/dicetylphosphate/cholesterol=10:10:2:15 (nmol) in 10 μl of 0.3 M glucose] and [1-^14C] oleic acid (5 μl, 0.05 μCi, 1 nmol) were added therein, then incubated further 14 hours.
After the incubation, supernatant was removed and the intracellular neutral lipids were extracted twice with adding hexane 0.6 ml and isopropanol 0.4 ml. The mixture was concentrated, spotted on TLC plate (silica gel plate, Merck Co., thickness 0.5 mm) and developed and with a mixed solvent of hexane/diethyl ether/acetia acid(70:30:1, v/v). The separated [^14C] cholesteryl olate and [^14C] triacylglycerol were quantitatively assayed using radio scanner (Ambis Co.).

[3] = system: mouse peritoneal macrophage; experiment: Toxicity test on growth of mouse peritoneal macrophage; format: cell-based; details: final concentration of 50 μM
[4] = system: mice; experiment: Toxicity test, intraperitoneal administration in mice; format: in vivo; details: administered intraperitoneally, 100 mg/kg
Description: Next, toxicity test of FO-6979 substances of the present invention was explained hereinbelow.
No toxicity was noted when FO-6979-M0 substance, -M1 substance, -M2 substance, -M3 substance and -M4 substance was administered intraperitoneally in mice with 100 mg/kg.

[5] = Solubility in solvent; format: physicochemical
Description: The thus obtained FO-6979-M0 substance, -M1 substance, -M2 substance, -M3 substance and -M4 substance exist in the cultured microorganism cells and the culture filtrate. Isolation of FO-6979-M0 substance, -M1 substance, -M2 substance, -M3 substance and -M4 substance from the cultured mass can be performed by extracting the whole cultured mass with water miscible organic solvent such as aceton, distilling off the organic solvent from the extract in vacuo, and extracting the residue with water immiscible organic solvent such as ethyl acetate. In addition to the above extraction procedure, conventional methods used for isolation of fat-soluble substances such as adsorption chromatography, gel filtration chromatography, thin-layer chromatography, counter current chromatography and high performance liquid chromatography can be used optionally in combination or repeatedly to isolate and purify FO-6979-M0 substance, -M1 substance, -M2 substance, -M3 substance and -M4 substance. Physicochemical properties of FO-6979 substances of the present invention are explained hereinbelow.

[6] = system: lipid droplets formation in mouse peritoneal macrophage; experiment: Lipid droplets formation in mouse peritoneal macrophage (oil red O / hematoxylin staining); format: cell-based; details: 20 μM, 14 hours
Description: Inhibitory action of FO-6979 substances of the present invention on lipid droplets formation in mouse peritoneal macrophage is explained.
Lipid droplets formation in mouse peritoneal macrophage was performed according to the method of Namatame et al. (J. Biochem. 125:319–327, 1999). Macrophage isolated from mouse peritoneal fluid was suspended at 2.0×10^6 cells/ml in Dulbecco's modified Eagle's medium containing 6.8% lipoprotein deficient serum (6.8% LPDS-DMEM) and aliquots (0.25 ml) were dispensed into a slide chamber (Nunc Co.).
The chamber was incubated in a humidified 5% CO2 atmosphere incubator at 37° C. for 2 hours, after which the chamber was washed with Hank's solution to remove the unattached cells. The chamber was incubated in 6.8% LPDS-DMEM for 1 hour, and FO-6979-M3 substance (2.5 μl methanol solution) and liposome [consisting of phosphatidylcholine/phosphatidylserine/dicetylphosphate/cholesterol=10:10:2:15 (nmol) in 10 μl of 0.3 M glucose] were added therein, then incubated further 14 hours.
The lipid droplets and nuclei were double stained with oilred O and hematoxylin, and observed by optical microscope (Olympus OpticalCo., Japan).

[7] = Mus musculus, Peritoneal macrophage, 14 h

Row | Structure (SMILES) | IC50 [1] [µM] | IC50 [2, 7] [µM] | toxicity for growth of mouse peritoneal macrophage [3] | toxicity in mice [4] | Solubility in solvent: methanol, benzene, chloroform and ethyl acetate [5] | Solubility in solvent: water and hexane [5] | inhibition at 45 µM ([2]; at 45 μM, read-out: inhibition of [14C] cholesteryl olate generation) [%] | IC50 [2] [µM] | lipid droplets accumulated in cytoplasm, decreased to % as compared with no drug addition (control) [6]
1 | CCCCC(C)C1CC(=O)N[C@@H](C(C)C)C(=O)N[C@@H](C)C(=O)N[C@H](C(C)C)C(=O)O1 (stereo partly drawn) [FO-6979-M0 substance] | > 50 | > 25 | No toxicity | No toxicity | soluble | slight soluble |  |  | 
2 | CCCCC(C)C1CC(=O)N[C@@H](C(C)C)C(=O)N[C@@H](C)C(=O)N[C@H]([C@@H](C)CC)C(=O)O1 (stereo partly drawn) [FO-6979-M1 substance] | > 50 | > 45 | No toxicity | No toxicity | soluble | slightly soluble | 20 |  | 
3 | CCCCC(C)C1CC(=O)N[C@@H](C(C)C)C(=O)N[C@@H](C)C(=O)N[C@H](CC(C)C)C(=O)O1 (stereo partly drawn) [FO-6979-M2 substance] |  |  | No toxicity | No toxicity | Soluble | slightly soluble |  | > 25 | 
4 | CCCCC(C)C1CC(=O)N[C@@H](Cc2ccccc2)C(=O)N[C@@H](C)C(=O)N[C@H](C(C)C)C(=O)O1 (stereo partly drawn) [FO-6979-M3 substance] | 40 | 21 | No toxicity | No toxicity | soluble | slightly soluble |  | > 25 | about 50%
5 | CCCCCCC(C)C1CC(=O)N[C@@H](C(C)C)C(=O)N[C@@H](C)C(=O)N[C@H]([C@@H](C)CC)C(=O)O1 (stereo partly drawn) [FO-6979-M4 substance] |  |  | No toxicity | No toxicity | soluble | slightly soluble |  |  | 
